Source: patent US8298781B2, “Compositions and methods for characterizing and regulating olfactory sensation” (Duke University, priority 2007, dated 2012)

How the values were obtained:
Assay type in all cases: in vivo
human subjects [1] = test: Human olfactory psychophysics: intensity rating by OR7D4 genotype; details: 7-point scale, two concentrations pooled; N=100 RT/WM, N=255 RT/RT
Protocol: (§1) Human olfactory psychophysics. All human subjects gave informed consent to participate in this study and were tested in a well-ventilated room. Normal human subjects (n=412; 218 female, 194 male; median age 34, age range 19-75) were pre-screened to exclude pregnant women and those with medical conditions causing general impairment of the sense of smell. All subjects completed two replicates of the test separated by at least 4 days. Odors were presented in amber vials as previously described (see, e.g., Keller, A., et al., Nat Neurosci 7, 337-338 (2004); herein incorporated by reference in its entirety) using bar-coded symbols to ensure that subjects were blind to the identity of all odors. The intensity and valence of 66 odors at two concentrations (“high” and “low”) and two solvents was rated using a 7-point scale. Thresholds were calculated using the single staircase method with seven reversals (see, e.g., Doty, R. L., et al., Chem Senses 20, 645-656 (1995); Doty, R. L. & Laing, D. G. in Handbook of Olfaction and Gustation (ed. Doty, R. L.) pp. 203-228 (Marcel Dekker, Inc., New York, 2003); each of which are herein incorporated by reference in their entireties). Threshold tests included both steroids as binary dilutions from […] (binary dilution 6) to 1: 134,217,728 (binary dilution 27). Subjects who could not reliably distinguish a 1:64 dilution of androstenone and androstadienone from solvent were operationally defined as anosmic to these odorous steroids, although it could not be excluded that these subjects could detect higher concentrations of these steroids (see, e.g., Bremner, E. A., et al., Chem Senses 28, 423-432 (2003); herein incorporated by reference in its entirety). Odor profiling used the method established by Dravnieks, et al. (see, e.g., Dravnieks, A., et al., Science 218, 799-801 (1982); herein incorporated by reference in its entirety).
(§2) Stimuli for olfactory psychophysics. All odors were presented as one ml of an odor dilution in either propylene glycol or paraffin oil in 20 ml amber glass vials. All of these compounds were used in the intensity and valence rating portion of the smell test.
(§3) Olfactory ratings. The intensity and valence of 66 odors were rated at two different concentrations (high and low) and the intensity and valence of the two solvents (paraffin oil and propylene glycol) was rated three times. Prior to these ratings, six stimuli that represented the spectrum of intensity and valence of the stimuli used in the study were presented to allow the subjects to calibrate the usage of the scale. The subjects were unaware that the six first stimuli served that purpose. After the rating of the 66 odors at two concentrations and the rating of the solvents, 15 stimuli that were presented earlier in the experiment were repeated to test for the effect of adaptation and olfactory fatigue on the ratings. The subjects were not aware that the last 15 stimuli served this purpose. These 15 stimuli and the six first stimuli were not included in the analysis presented here. […] The 15 control stimuli and their concentrations were as follows:
(§4) In addition there was a button on the screen labeled “I can't smell anything” and a button labeled “Don't Know”. If the “Don't Know” button was pressed, no rating was recorded. If the “I can't smell anything” button was pressed, a 0 was recorded for the intensity rating and no rating was recorded for the valence rating. The other ratings were transformed according to the following scheme:
(§5) • Extremely Weak=1 • Very Weak=2 • Slightly Weak=3 • Neither Weak nor Strong=4 • Slightly Strong=5 • Very Strong=6 • Extremely Strong=7 Valence Rating • Extremely Unpleasant=1 • Very Unpleasant=2 • Slightly Unpleasant=3 • Neither Unpleasant nor Pleasant=4 • Slightly Pleasant=5 • Very Pleasant=6 • Extremely Pleasant=7
(§6) Averages for the ratings of the different genotypes were calculated. […]

human subjects [2] = test: Human olfactory psychophysics: valence rating by OR7D4 genotype; details: 7-point scale, two concentrations pooled
Protocol: as §1, §2, §3, §4, §5, §6

human subjects [3] = test: Human olfactory psychophysics: odor profiling with 146 descriptors; details: vanillin 1/200
Protocol: Human olfactory psychophysics. All human subjects gave informed consent to participate in this study and were tested in a well-ventilated room. Normal human subjects (n=412; 218 female, 194 male; median age 34, age range 19-75) were pre-screened to exclude pregnant women and those with medical conditions causing general impairment of the sense of smell. All subjects completed two replicates of the test separated by at least 4 days. Odors were presented in amber vials as previously described (see, e.g., Keller, A., et al., Nat Neurosci 7, 337-338 (2004); herein incorporated by reference in its entirety) using bar-coded symbols to ensure that subjects were blind to the identity of all odors. The intensity and valence of 66 odors at two concentrations (“high” and “low”) and two solvents was rated using a 7-point scale. Thresholds were calculated using the single staircase method with seven reversals (see, e.g., Doty, R. L., et al., Chem Senses 20, 645-656 (1995); Doty, R. L. & Laing, D. G. in Handbook of Olfaction and Gustation (ed. Doty, R. L.) pp. 203-228 (Marcel Dekker, Inc., New York, 2003); each of which are herein incorporated by reference in their entireties). Threshold tests included both steroids as binary dilutions from […] (binary dilution 6) to 1: 134,217,728 (binary dilution 27). […]
Assigning descriptors to odors. Subjects assessed the quality of six odors using an odor profiling method that has shown to produce stable profiles of odorants. […] Odor profiling typically took five minutes per odorant and was performed as a computer-controlled selftest in which the subject's responses were directly recorded. […] The descriptors used to describe the other four odors (vanillin, pentadecalactone, androstenone, and propylene glycol) were evaluated. […]

Structure (SMILES)	intensity rating, OR7D4 RT/WM vs RT/RT subjects (human subjects [1])	valence rating, OR7D4 RT/WM vs RT/RT subjects (human subjects [2])	use of two descriptors, OR7D4 RT/WM vs RT/RT subjects (human subjects [3])
CC1COCc2cc3c(cc21)C(C)(C)C(C)C3(C)C (centres unmarked) [galaxolide]	not affected		
CCCCCCCCOC(C)=O [octyl acetate]		less pronounced—but statistically significant—difference	
O=C1CCCCCCCCCCCCCCO1 [pentadecalactone]	not affected		
COc1cc(C=O)ccc1O [vanillin]		less pronounced—but statistically significant—difference	comparable increase
